{"source": "patent EP2392568A1", "about": "“Heterocyclic amino acids for prostate cancer imaging” (priority 2010, dated 2011)", "key": {"[1]": {"system": "primary prostate cancer tumors", "details": "prostate cancer patients, cited from earlier work; for uptake into primary prostate cancer tumors: Schuster et al., abstract at SNM 2010"}, "[2]": {"system": "DU145 xenografts", "assay": "PET/CT-imaging in DU145-tumor bearing mice", "type": "in vivo", "details": "microPET/CT; for renal clearance / background activity: 50-70min after injection; for tumor-contrast: 50-70min after injection of - 10 MBq radiotracer; for background activity: except for kidney and bladder uptake", "protocol": "Example 9 was imaged on a microPET/ CT (Inveon, Siemens) in DU145 tumor-bearing mice 50-70min after injection of - 10 MBq radiotracer 45.\nExample 10 was imaged on a microPET/ CT (Inveon, Siemens) in DU145 tumor-bearing mice 50-70min after injection of - 10 MBq radiotracer 46."}, "[3]": {"system": "DU145 prostate cancer cells", "assay": "Cell-uptake experiment: uptake of [14C] ACPC in the presence of excess heterocyclic amino acid", "type": "cell-based", "details": "5 µM 14C-ACPC, 60 minutes at 37°C, uptake buffer PBS with 0.1% BSA, Figure 10", "protocol": "To assess the difference between heterocyclic amino acids and other non-natural amino acids, we studied the uptake of the cyclic amino acid [14C] ACPC into DU145 prostate cancer cells in the presence of excess amount of an heterocyclic amino acid (compound 15). 25000 DU145 cells were seeded per cavity of a 48 well incubation plate (Becton Dickinson; Cat. 353078) and incubated for 2 days in D-MEM / F-12 (1:1) with GlutaMAx (Invitrogen; Cat. 31331) medium supplemented with 10% FCS in an incubator (37°C, 5%CO2)."}, "[4]": {"details": "McConathy and Goodman, Cancer Metastasis Rev. 2008; cited from earlier work"}}, "data": [{"smiles": "N[C@]1(C(=O)O)C[C@@H](F)C1", "note": "[3-FACBC, anti-1-amino-3-[18F]fluorocyclobutyl-1-carboxylic acid]", "values": [{"measurement": "uptake into primary prostate cancer tumors", "setting": "[1]", "value": "showed uptake into primary prostate cancer tumors"}, {"measurement": "background in other organs", "setting": "[1]", "value": "high background in other organs such as liver and heart"}, {"measurement": "renal elimination / excretion into the bladder", "setting": "[1]", "value": "delayed renal elimination"}]}, {"smiles": "NC1(C(=O)O)COCC1[18F]", "note": "(racemic) [tracer 45, (3SR,4SR)-3-Amino-4-[^18F]fluorotetrahydrofuran-3-carboxylic acid]", "values": [{"measurement": "renal clearance", "setting": "[2]", "value": "rapid renal clearance"}, {"measurement": "tumor-contrast", "setting": "[2]", "value": "High tumor-contrast"}, {"measurement": "background activity", "setting": "[2]", "value": "very low background activity"}]}, {"smiles": "N[C@]1(C(=O)O)COC[C@H]1F", "note": "(racemic) [compound 15, (3SR,4SR)-3-Amino-4-fluorotetrahydrofuran-3-carboxylic acid]", "values": [{"measurement": "[14C] ACPC uptake into DU145 prostate cancer cells in the presence of excess amount of heterocyclic amino acid", "setting": "[3]", "value": "able to block [14C] ACPC uptake"}]}, {"smiles": "NC1(C(=O)O)CCCC1[18F]", "note": "(centres unmarked) [2-FACPC]", "values": [{"measurement": "uptake into primary prostate cancer tumors", "setting": "[1]", "value": "showed uptake into primary prostate cancer tumors"}, {"measurement": "background in other organs", "setting": "[1]", "value": "high background signals for instance in the blood pool"}, {"measurement": "renal elimination / excretion into the bladder", "setting": "[1]", "value": "excreted into the bladder more rapidly"}]}, {"smiles": "NC1([11C](=O)O)CCC1", "note": "[[11C]ACBC, 1-aminocyclobutane-1-[11C]carboxylic acid]", "values": [{"measurement": "metabolism", "setting": "[4]", "value": "not metabolized"}]}, {"smiles": "N[C@@]1(C(=O)O)CCOC[C@@H]1[18F]", "note": "(racemic) [tracer 46, (3RS,4RS)-4-Amino-3-[^18F]fluoro-3,4,5,6-tetrahydro-2H-pyran-4-carboxylic acid]", "values": [{"measurement": "renal clearance", "setting": "[2]", "value": "rapid renal clearance"}, {"measurement": "tumor-contrast", "setting": "[2]", "value": "High tumor-contrast"}, {"measurement": "background activity", "setting": "[2]", "value": "very low background activity"}]}]}
